# PubChem BioAssay (NCI)
# “And” between values parts separate entries of the source, which are not always exact repeats. Equal entries are not always repeated.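 Grown in 96-well plates, cells were treated for 48 hours with each compound at five concentrations. Insufficient inhibition: endpoint recorded as highest concentration tested. Abbreviation: GI50, concentration required for 50% inhibition of growth. At the TGI there is no net growth.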
# Tests used:
# Assay in all cases: NCI tumour cell line growth inhibition, 48 h
# [1] = tested on: CAKI-1 renal
# [2] = tested on: DU-145 prostate
# [3] = tested on: MDA-MB-231 breast
# [4] = tested on: OVCAR-5 ovarian
# [5] = tested on: HT29 colon
# [6] = tested on: MOLT-4 leukemia
# [7] = tested on: HOP-62 NSCLC
# [8] = tested on: IGROV1 ovarian
# [9] = tested on: U251 CNS
# [10] = tested on: SF-539 CNS
Compound,TGI [1],TGI [2],TGI [3],TGI [4],TGI [5],TGI [6],TGI [7],TGI [8],TGI [9],TGI [10],GI50 [1],GI50 [2],GI50 [3],GI50 [4],GI50 [5],GI50 [6],GI50 [7],GI50 [8],GI50 [9],GI50 [10]
COc1ccc2c(CC(=O)O)cc(=O)oc2c1,> 100 µM,> 100 µM,> 100 µM,> 100 µM,> 100 µM,> 100 µM,> 100 µM,> 100 µM,> 100 µM,> 100 µM,,,,,,,,,,
CN(CCCCCl)P(=O)(OCc1ccc([N+](=O)[O-])o1)C(F)(F)c1ccc(CC(=O)N[C@@H](CC(=O)O)C(=O)N[C@@H](Cc2ccc(C(F)(F)P(=O)(OCc3ccc([N+](=O)[O-])o3)N(C)CCCCCl)cc2)C(N)=O)cc1 (some centres not stated),> 100 µM,> 100 µM,> 100 µM,> 100 µM,> 100 µM,91.2 µM,> 100 µM,> 100 µM,> 100 µM,99.8 µM,> 100 µM,85.8 µM,39.6 µM,> 100 µM,60.4 µM,31.4 µM,> 100 µM,45.7 µM,50.8 µM,31 µM
COc1ccc(-c2cc(-c3ccc(O)cc3)nc3nc(=S)[nH]c(N)c23)cc1,88.7 µM,35.3 µM,57.8 µM,74.3 µM,> 100 µM,> 100 µM,47.5 µM,73.8 µM,61.1 µM,17.1 µM,27.1 µM,12.1 µM,16.1 µM,32 µM,30.1 µM,7.01 µM,20.7 µM,18.6 µM,15.3 µM,2.46 µM
O=C(O)CN(CC(=O)O)Cc1cc2c(cc1O)Oc1cc(O)c(CN(CC(=O)O)CC(=O)O)cc1C21OC(=O)c2ccccc21,> 100 µM,> 100 µM,> 100 µM,> 100 µM,> 100 µM,> 100 µM,> 100 µM,> 100 µM,> 100 µM,> 100 µM,,,,,,,,,,
O=C(/C=C/c1ccccn1)c1ccccc1O,3.21 µM,5.69 µM,7.5 µM,6.8 µM,4.84 µM,7.04 µM,6.15 µM,3.36 µM,5.78 µM,4.2 µM,1.58 µM,2.31 µM,2.8 µM,2.43 µM,2.23 µM,2.43 µM,2.4 µM,1.76 µM,2.02 µM,2.05 µM
CCc1ccc(CCC(=O)Nc2ncc(Cc3cc(Cl)ccc3Cl)s2)o1,12.1 µM,> 50 µM,15.6 µM,> 50 µM,> 50 µM,> 50 µM,16.9 µM,> 50 µM,11.7 µM,4.1 µM,0.774 µM,1.74 µM,2.16 µM,2.21 µM,1.17 µM,1.3 µM,2.01 µM,1.69 µM,1.61 µM,1.26 µM
O=C(CCCCCCC(=O)N/N=C/c1ccc(N(c2ccccc2)c2ccccc2)cc1)NO,1.24 µM,8.13 µM,12.2 µM,2.94 µM,6.76 µM,10.3 µM,10.2 µM,2.74 µM,4.46 µM,4.95 µM,0.201 µM,2.43 µM,3.37 µM,0.417 µM,2.26 µM,1.88 µM,2.21 µM,0.505 µM,1.75 µM,2.17 µM
NC(=O)c1nnn(Cc2cc(Cl)c(C(=O)c3ccc(Cl)cc3)c(Cl)c2)c1N,25.5 µM,> 53.5 µM,> 52.8 µM,> 53.4 µM,> 9.09 µM and 42 µM,> 90.7 µM,> 9.09 µM and 41.1 µM,> 9.09 µM and 44.2 µM,> 9.09 µM and 38.1 µM,> 9.09 µM and 46.5 µM,,,,> 9.09 µM,> 9.09 µM,> 9.09 µM,> 9.09 µM,> 9.09 µM,> 9.09 µM,> 9.09 µM
O=C(N/N=C/c1coc2ccc(Cl)cc2c1=O)c1ccncc1,> 100 µM,> 100 µM,> 100 µM,> 100 µM,> 100 µM,71.2 µM,> 100 µM,> 100 µM,> 100 µM,> 100 µM,74.1 µM,> 100 µM,80.6 µM,> 100 µM,> 100 µM,21.1 µM,39.7 µM,24.8 µM,39.7 µM,75.9 µM
O=C(CSc1nc2ccc([N+](=O)[O-])cc2[nH]1)Nc1cccc(Cl)c1,10.4 µM,18.4 µM,6.55 µM,13.4 µM,10.7 µM,40.4 µM,13 µM,18.3 µM,13.1 µM,11.7 µM,2.3 µM,3.68 µM,2.12 µM,2.7 µM,2.75 µM,3.2 µM,2.79 µM,3.1 µM,2.6 µM,3.02 µM
C=CCCC(O)c1ccc(C(O)CCCCCCCCCCCC)o1 (configuration not stated),34.8 µM,46.9 µM,38.5 µM,41.4 µM,> 100 µM,38.3 µM,34.8 µM,43.2 µM,31.9 µM,37.5 µM,18.1 µM,22.6 µM,20.1 µM,21.5 µM,32.3 µM,7.16 µM,19.1 µM,18.7 µM,17.5 µM,19.7 µM
COc1ccc(-c2cn(-c3ccc(Cl)cc3)c(=S)[nH]2)cc1OC,> 100 µM,> 100 µM,87 µM,> 100 µM,> 100 µM,> 100 µM,> 100 µM,> 100 µM,> 100 µM,> 100 µM,3.24 µM,14 µM,1.5 µM,4.58 µM,3.89 µM,> 100 µM,21.5 µM,7.08 µM,12.3 µM,29.9 µM
O=C(CCc1nnc(-c2c(Cl)cccc2Cl)o1)c1nc2ccccc2[nH]1,41.1 µM,> 100 µM,42.6 µM,> 100 µM,55.1 µM,25.8 µM,41.3 µM,39.1 µM,77.6 µM,39.6 µM,3.49 µM,17.8 µM,2.68 µM,7.82 µM,3.77 µM,4.07 µM,7.67 µM,5.26 µM,10.9 µM,10.5 µM
